Experimental data published in patent publication US8501442B2, “Determination of 5-ASA efficacy in CRC prevention and/or treatment by gene expression analysis” (Sofar SpA, priority 2009, dated 2013).

Legend:
Type in all cases: cell-based
[1] = test system: CaCo2 cells; assay: Proliferation of CaCo2 cells under 5-ASA treatment (preliminary experiments)
[2] = test system: μ-protocadherin/β-catenin protein complex in CaCo2 cells; assay: Coimmunoprecipitation analysis of μ-protocadherin/β-catenin protein interaction in CaCo2 cells; conditions: lysates of CaCo2 cells, 20 mM 5-ASA for 96 h
Description: The hypothesis arising from our data would directly imply that μ-protocadherin, as other proteins belonging to the cadherin superfamily, is able to bind β-catenin on the plasmatic membrane. To verify this interaction we performed co-immunoprecipitation experiments in which β-catenin was immunoprecipitated from lysates of CaCo2 cells treated with 20 mM 5-ASA for 96 h using a specific antibody and the immunoprecipitate was subsequently analyzed by Western blot carried out with a distinct antibody able to detect μ-protocadherin. […] FIG. 4. Coimmunoprecipitation analysis of μ-protocadherin/β-catenin protein interaction. […] Western blot analysis of μ-protocadherin expression was performed in cell lysates of control untreated and 5-ASA treated CaCo2 cells (Input, left panel), immunoprecipitates obtained by the same cells using normal control IgG (middle panel) and immunoprecipitates obtained by the same cells using an anti-β-catenin antibody (right panel). IP, immunoprecipitation; WB, Western blot; Ab antibody.

[3] = test system: β-catenin protein in CaCo2 cells; assay: Immunofluorescence assay of sub-cellular distribution of β-catenin in CaCo2 cells; conditions: 20 mM 5-ASA, after 96 h of culture
Description: Due to the particular regulation mechanisms controlling the β-catenin signalling pathway, levels of β-catenin protein observed in the different subcellular compartments represent reliable indicators of the extent of its activation. Based on this premise we performed an immunofluorescence assay to assess the sub-cellular distribution of β-catenin protein in CaCo2 cells undergoing treatment with 20 mM 5-ASA. […] FIG. 3. Immunofluorescence analysis of β-catenin protein on CaCo2 cells exposed to 5-ASA treatment. Cells were stimulated with 5-ASA as explained in Results and subsequently stained with an anti-β-catenin primary antibody and a FITC conjugated secondary antibody (green fluorescence). Untreated control cells (CONT.) were also analyzed. Nuclei were counterstained with DAPI (blue fluorescence). Merge images, of the two analyzed fluorescence signals, are also shown.

[4] = test system: β-catenin signalling pathway genes in CaCo2 colon adenocarcinoma cells; assay: QRT-PCR analysis of genes regulating the β-catenin signalling pathway in CaCo2 cells; conditions: 20 mM 5-ASA
Description: (§1) To investigate the molecular mechanisms underlying this effect we performed a microarray analysis, using the Affimetrix methodology, in order to assess the transcriptome changes determined on CaCo2 cells by treatment with 20 mM 5-ASA for 96 h. […] This gene codes for a member of the cadherin superfamily and, based on previous reports by other authors, appeared as a putative inhibitor of the β-catenin signalling pathway, i.e. a cell proliferation pathway mediated by the activity of the β-catenin transcription factor^16,17. The relevance of this finding resides in the observation that the β-catenin signalling pathway is constitutively activated in CRC. […] Up-regulation of mRNA expression resulted to be 12-fold for μ-protocadherin, 16-fold for p21^waf-1, 4 to 6-fold for KLF4 and CEBPα and 2 to 3-fold Axin 1 and ICAT. […] The up-regulation of these genes appeared also more pronounced at the end of stimulation (96 h). mRNA expression of E-cadherin and β-catenin appeared, conversely, unaffected (FIG. 1).
FIG. 1. QRT-PCR analysis of genes belonging to the β-catenin signalling pathway in CaCo2 cells treated with 5-ASA. Cells under the experimental conditions described in Results were analyzed by QRT-PCR to estimate the mRNA expression of genes belonging to the β-catenin signalling pathway, all indicated on y-axis. The effect determined by 5-ASA treatment on the mRNA expression of KLF4 and CEBPα onco-suppressor genes is also shown.
Total RNA was extracted from cell suspensions and frozen tissues by means of the Qiagen total RNA purification kit as recommended by the manufacturer (Qiagen, Valencia, Calif.). RNA integrity and concentration were verified using the Bio-Analyzer technique (Applied Biosystem, Foster City, Calif.). 100 ng of total RNA were reverse transcribed using the High Capacity cDNA Archive Kit (Applied Biosystems) according to the manufacturer's instructions. QRT-PCR was performed with an ABI PRISM 7900 sequence detection system (Applied Biosystems) to quantify the relative levels of mRNA in the samples. Primers and probes for mRNA amplification of μ-protocadherin, E-cadherin, β-catenin, Axin-1, Inhibitor of β-Catenin and TCF-4 (ICAT), p21^waf-1, KLF4, CEBPα, and glyceraldehyde-3-phosphate dehydrogenase (GAPDH) were designed by Applied Biosystems. Each cDNA sample was run in triplicate in 50 μl reaction volume using Taqman Universal PCR Master Mix (Applied Biosystems). Thermal cycling was started with an initial denaturation at 50° C. for 2 min and 95° C. for 10 min, followed by 40 thermal cycles of 15 sec at 95° C. and 1 min at 60° C. Evaluation of QRT-PCR signals was performed using the ΔΔCt relative quantitation method. […] The values obtained were expressed in terms of relative quantity (RQ) of mRNA level variation.

[5] = test system: β-catenin signalling pathway genes in HT29 colon adenocarcinoma cell line; assay: QRT-PCR analysis of β-catenin signalling pathway genes in HT29 cells; conditions: 20 mM 5-ASA, 96 h
Description: These findings were also confirmed in another colon adenocarcinoma cell line, named HT29, under the same experimental conditions.
FIG. 5. Biological effects determined by treatment with 5-ASA on the HT29 colon adenocarcinoma cell line. The mRNA expression variations of gene belonging to the β-catenin signalling pathway were analyzed in HT29 cells using the QRT-PCR reaction under the experimental conditions described in Results and in FIG. 1.
Total RNA was extracted from cell suspensions and frozen tissues by means of the Qiagen total RNA purification kit as recommended by the manufacturer (Qiagen, Valencia, Calif.). RNA integrity and concentration were verified using the Bio-Analyzer technique (Applied Biosystem, Foster City, Calif.). 100 ng of total RNA were reverse transcribed using the High Capacity cDNA Archive Kit (Applied Biosystems) according to the manufacturer's instructions. QRT-PCR was performed with an ABI PRISM 7900 sequence detection system (Applied Biosystems) to quantify the relative levels of mRNA in the samples. […] Evaluation of QRT-PCR signals was performed using the ΔΔCt relative quantitation method. […] The values obtained were expressed in terms of relative quantity (RQ) of mRNA level variation.

[6] = test system: onco-suppressor genes in CaCo2 cells; assay: Affimetrix microarray analysis of transcriptome changes in CaCo2 cells; conditions: 20 mM 5-ASA for 96 h
Description: as §1

[7] = test system: μ-protocadherin protein in CaCo2 cells; assay: Time course Western blot of μ-protocadherin protein expression in CaCo2 cells; conditions: 20 mM 5-ASA for up to 96 h, 24 h intervals
Description: To confirm μ-protocadherin induction we performed a time course Western blot analysis on CaCo2 cells undergoing exposure to 20 mM 5-ASA for up to 96 h. […] FIG. 2. Results of a time course Western blot analysis evaluating the expression of μ-protocadherin protein in CaCo2 cells treated with 5-ASA. This analysis was performed on cytoplasmic extracts of studied cells, at 24 h intervals following treatment with 5-ASA. Analyzed cell samples are indicated on the top. Normalization of the protein amount loaded in each lane was achieved using a pan-actin antibody able to detect either cytoplasmic or nuclear actin.

[8] = 48 and 96 h (more pronounced at 96 h)

`Nc1ccc(O)c(C(=O)O)c1` [5-ASA, 5 aminosalicylic acid] was tested, and the “proliferation activity of CaCo2 cells” value [1] was “inhibits the proliferation activity”, the “μ-protocadherin bands (93 and 110 kDa) in β-catenin immunoprecipitate” value [2] was “interacting with β-catenin” and the “sub-cellular localization of β-catenin signal” value [3] was “almost exclusively localized in the plasmatic membrane”. The “mRNA expression of E-cadherin” value ([4]; 48 and 96 h) was “unaffected”, the “mRNA expression of β-catenin” value ([4]; 48 and 96 h) was “unaffected” and the “up-regulation of p21^waf-1 mRNA expression” value [4, 8] was 16 fold. The “up-regulation of μ-protocadherin mRNA expression” value [4, 8] was 12 fold, the “induction of p21^waf-1 mRNA expression” value [5] was 5 fold and the “induction of μ-protocadherin mRNA expression” value [5] was 3 fold. For the same molecule, the “expression of onco-suppressor genes (μ-protocadherin, KLF4, CEBPα) by microarray” value [6] was “up-regulated expression” and the “μ-protocadherin protein expression in cytoplasmic extract (Western blot)” value [7] was “gradually but remarkably induced”.
